The values below come from patent US6221858A, “Pyridyl-and pyrimidyl-piperazines in the treatment of substance abuse disorders” (priority 1996, dated 2001).

Structures can show the parent of a compound that is named as a salt. Where two headings read alike, the source gives them in different places. Where only a bound is given, the exact number is not on record here.

One data set addresses T1, 5-HT1A Sites (Rattus norvegicus, UniProt P19327).
T1 sequence (P19327 1-422): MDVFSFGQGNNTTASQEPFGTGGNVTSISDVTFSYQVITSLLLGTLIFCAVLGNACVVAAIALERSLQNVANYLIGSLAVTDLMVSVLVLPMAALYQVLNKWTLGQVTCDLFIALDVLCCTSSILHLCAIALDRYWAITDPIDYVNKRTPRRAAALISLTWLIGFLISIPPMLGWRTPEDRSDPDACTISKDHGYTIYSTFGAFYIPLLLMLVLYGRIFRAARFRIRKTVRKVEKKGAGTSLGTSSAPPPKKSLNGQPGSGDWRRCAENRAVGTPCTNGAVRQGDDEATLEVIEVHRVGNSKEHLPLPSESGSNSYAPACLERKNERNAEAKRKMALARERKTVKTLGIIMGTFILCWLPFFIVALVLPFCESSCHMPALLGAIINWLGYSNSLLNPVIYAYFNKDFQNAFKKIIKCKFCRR
Description: biochemical. It is filed as binding.

Data set [1] has as its target T2, [3H]-5-HT uptake by synaptosomes from rat frontal cortex (Rattus norvegicus, UniProt P31652).
T2 construct: synaptosomes from rat frontal cortex; from tissue; host or cells: rat frontal cortex synaptosomes
The data set is described as follows: Uptake of [3H]-5-HT by synaptosomes from rat frontal cortex. It is filed as biochemical.

A further data set concerns the target T3, 5-HT2A Sites (Rattus norvegicus, UniProt P14842).
T3 construct: Radioligand: ^3 H-Ketanserin Tissue: Cerebral cortex; from tissue; host or cells: cerebral cortex
Description: Drug affinity for 5-HT2A sites (3H-Ketanserin binding, cerebral cortex). The following applies: Radioligand 3H-Ketanserin; tissue cerebral cortex.

Data set [2] deals with alcohol preferring (P) rats. Description: Effect on alcohol intake in alcohol preferring (P) rats. It is filed as in vivo, rat. The protocol: To further illustrate the useful pharmacological properties of compounds of formula (I), the effect of Compound A administered systematically was determined in alcohol preferring (P) rats. Because of its pattern of drinking, the P animal seems to represent a valid genetically based model to approximate the human condition of alcoholism (McBride et al., Alcohol 7:199-205, 1990; Lankford et al., Pharmacol. Biochem. Behav. 8:293-299,1991). After maximally preferred alcohol concentrations had stabilised for four days, Compound A in a dose of 2.5 and 10 mg/kg was administered twice a day over four consecutive days. […] The highest dose of Compound A reduced intake of alcohol by >40%.

A further data set deals with rats. To be noted: cited from earlier work.
Another data set has as its system monkeys. The following applies: cited from earlier work.
The subject of data set [3] is alcohol-dependent individuals. The following applies: compared to placebo; cited from earlier work.
Where [4] appears, read: Radioligand 3H-8-OH-DPAT, tissue hippocampus.

T2 sequence (P31652 whole entry): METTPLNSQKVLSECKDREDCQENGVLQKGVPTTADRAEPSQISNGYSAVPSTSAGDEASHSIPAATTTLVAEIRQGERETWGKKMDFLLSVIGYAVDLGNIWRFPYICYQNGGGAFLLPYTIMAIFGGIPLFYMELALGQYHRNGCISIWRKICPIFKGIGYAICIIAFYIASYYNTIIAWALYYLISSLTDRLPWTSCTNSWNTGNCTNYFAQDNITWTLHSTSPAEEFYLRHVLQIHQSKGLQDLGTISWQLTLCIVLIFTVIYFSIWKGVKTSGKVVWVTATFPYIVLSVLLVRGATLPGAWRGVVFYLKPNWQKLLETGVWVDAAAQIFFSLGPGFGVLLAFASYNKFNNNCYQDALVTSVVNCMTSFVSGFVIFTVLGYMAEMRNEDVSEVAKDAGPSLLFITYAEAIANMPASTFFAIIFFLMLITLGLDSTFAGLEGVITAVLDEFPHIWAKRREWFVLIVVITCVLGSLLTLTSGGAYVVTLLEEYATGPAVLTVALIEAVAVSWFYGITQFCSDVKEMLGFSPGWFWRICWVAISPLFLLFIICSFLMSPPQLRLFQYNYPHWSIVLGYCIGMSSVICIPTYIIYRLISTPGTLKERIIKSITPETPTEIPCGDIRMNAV
T3 sequence (P14842 whole entry): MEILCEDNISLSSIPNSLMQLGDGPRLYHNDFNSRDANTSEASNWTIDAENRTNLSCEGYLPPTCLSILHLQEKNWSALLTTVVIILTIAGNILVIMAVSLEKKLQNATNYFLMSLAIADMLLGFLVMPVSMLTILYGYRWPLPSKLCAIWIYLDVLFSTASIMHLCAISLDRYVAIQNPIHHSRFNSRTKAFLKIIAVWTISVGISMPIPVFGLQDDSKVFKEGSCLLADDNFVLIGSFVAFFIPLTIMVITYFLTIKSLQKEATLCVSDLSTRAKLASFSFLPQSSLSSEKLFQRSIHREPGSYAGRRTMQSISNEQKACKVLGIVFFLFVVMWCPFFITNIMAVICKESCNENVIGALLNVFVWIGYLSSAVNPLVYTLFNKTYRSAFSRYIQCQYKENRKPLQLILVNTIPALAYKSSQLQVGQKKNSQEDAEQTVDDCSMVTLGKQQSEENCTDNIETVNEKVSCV

Usually Ki stands for a measure of affinity in units of concentration, obtained from inhibition or displacement. Higher therefore signals a looser hold on the target. Broadly, the IC50 is the concentration at which inhibition is half-maximal. With `Cc1cccc(N2CCN(CCCCc3ccc(F)cc3)CC2)n1.O=C(O)/C=C/C(=O)O` [Compound A, 1-[4-(p-fluorophenyl)-butyl]-4-(6-methyl-2-pyridinyl)-piperazine fumarate], the Ki came to 0.9 nM on 5-HT1A Sites (setting [4]) and 10 nM at 5-HT2A Sites. Also, in data set [1], the IC50 came to 12000 nM. Besides, the “Food and water after injections” value in data set [2] (after Compound A injections) was “returned to pre-drug levels”. Also, in data set [2] (both doses, 2.5 and 10 mg/kg twice a day over four days, during administration), the “Intake of alcohol (absolute g/kg and proportion of alcohol to total fluid intake)” value is recorded as “significantly reduced”. Moreover, the “Ingestion of food and water” value in data set [2] (each dose, during the period of injection) was “increased the ingestion of food and water above pre-treatment levels”. Further, the “Alcohol intakes after administration versus pre-treatment level” value in data set [2] (five days following administration, intakes rebounded) is listed as “still being significantly lower than those of the pre-treatment level”. Besides, the “Reduction of intake of alcohol” value in data set [2] (highest dose (10 mg/kg) twice a day over four consecutive days) was greater than 40%.
On to `CCNC(=O)N1CCN(CCCC(c2ccc(F)cc2)c2ccc(F)cc2)CC1` [Amperozide, reference compound], for which the values for the Ki on 5-HT1A Sites and on 5-HT2A Sites were 805 nM and 16 nM, respectively. The IC50 in data set [1] is 320 nM. Besides, in the data set with rats, the Intake of alcohol entry is on record as “significantly attenuate”.
For `COC(=O)c1cccnc1N1CCN(CCCC(c2ccc(F)cc2)c2ccc(F)cc2)CC1` [FG5893, 2-[4-[4,4-bis(4-fluorophenyl)butyl]-1-piperazinyl]-3-pyridine-carboxylic acid methyl ester dihydrochloride ethylat, reference compound], the Ki at 5-HT1A Sites (setting [4]) is 0.7 nM. For the same compound, in data set [1] (synaptosomes from rat frontal cortex, concentration which inhibits the uptake by 50%, read-out: IC50, uptake of [3H]-5-HT), the IC50 worked out at 80 nM.
Regarding `O=C1CC2(CCCC2)CC(=O)N1CCCCN1CCN(c2ncccn2)CC1` [Buspirone], the Consumption of alcohol entry in the data set on monkeys is “attenuate significantly”. Also, in data set [3], the Drop-out rate entry was “lower drop-out rate” and the Signs of craving result was “fewer signs of craving”.
With `CCOc1cccnc1N1CCN(CCCCc2ccc(F)cc2)CC1` [Compound B, 1-[4-(p-fluorophenyl)-butyl]-4-(3-ethoxy-2-pyridinyl)-piperazine fumarate], the Ki is 1.7 nM on 5-HT1A Sites (setting [4]) and 1.6 nM on 5-HT2A Sites.
